According to patent US5935944A, “Formulation for I.V. administration of the boron delivery drug, boronophenylalanine (BPA)” (Neutron Technology Corporation, priority 1996, dated 1999):
In brackets after ≈: the same amount, converted by molar mass.

What was measured:
[1] = pH 7.4; background statement; cited from earlier work
cancer cells = settings: apparently by amino acid transport system uptake; cited from earlier work

Experimental for physchem: For solubility determinations, an excess of BPA was always used. All formulations were sonicated (ultrasonic wave treatment), adjusted to a final pH of 7.4, and filtered through a 0.22 micron filter. The BPA concentration of filtered solutions was calculated from B levels which were measured by inductively coupled plasma atomic emission spectrometry. […] Unless otherwise specified, BPA and B levels are reported as mean±standard error of the mean (SEM) of three experiments.

NC(Cc1ccc(B(O)O)cc1)C(=O)O (stereo not shown) [BPA, P-boronophenylalanine]
water solubility at physiological pH [1]: < 4 ppm
selective accumulation in cancer cells (cancer cells): does seem to selectively accumulate in cancer cells
solubility (physchem; buffer, pH 7.4, aqueous buffer): 2200 ± 400 µg/mL (≈ 10.5 mM)
solubility (physchem; water, pH 7.4, water): 1150 to 3700 µg/mL (≈ 5.5 to 17.7 mM)
